Data published in US8039614B2, “4' -C-substituted-2-haloadenosine derivative” (Yamasa Corporation, priority 2004, dated 2011).

What was measured:
[1] = test system: HIV-1 M184V drug-resistant strain; assay: MAGI assay using HeLa CD4/LTR-beta-Gal cells, drug-resistant strain M184V; assay type: cell-based; settings: Human immunodeficiency virus 1, HeLa, 48 h, read-out: Anti-HIV-1M184V activity (EC50, μM)
Description: (§1) • 1. A test agent (100 μl) is diluted on a 96-well microplate. MT-4 cells infected with HIV-1 (IIIb strain; 100 TCID50) and non-infected MT-4 cells are added to the microplate such that the number of cells in each well becomes 10,000. The cells are cultured at 37° C. for five days. • 2. MTT (20 μl, 7.5 mg/ml) is added to each well, and the cells are further cultured for 2-3 hours. • 3. The cultured medium (120 μl) is sampled, and MTT terminating solution (isopropanol containing 4% Triton X-100 and 0.04N HCl) is added to the sample. The mixture is stirred to dissolve formed formazan. The absorbance at 540 nm of the solution is measured. Since the absorbance is proportional to the number of viable cells, the test agent concentration at which a half value of the absorbance is measured in a test using infected MT-4 cells represents EC50, whereas the test agent concentration at which a half value of the absorbance is measured in a test using non-infected MT-4 cells represents CC50. 2) MAGI Assay Using HeLa CD4/LTR-beta-Gal Cells • 1. HeLa CD4/LTR-beta-Gal cells are added to 96 wells such that the number of cells in each well is 10,000. After 12-24 hours, the culture medium is removed, and a diluted test agent (100 μl) is added. • 2. A variety of HIV strains (wild strain: WT, drug-resistant strain: MDR and M184V; each being equivalent to 50 TCID50) are added, and the cells are further cultured for 48 hours. • 3. The cells are fixed for five minutes using PBS supplemented with 1% formaldehyde and 0.2% glutaraldehyde. • 4. After the fixed cells are washed with PBS three times, the cells are stained with 0.4 mg/ml X-Gal for one hour, and the number of blue-stained cells of each well is counted under a transmission stereoscopic microscope. The test agent concentration at which blue-stained cells decrease to 50% in number represents EC50. <Results> Anti-human-immunodeficiency Virus (HIV) Activity and Cytotoxicity 1) MTT Method Using MT-4 Cells

[2] = test system: HIV-1 wild strain (WT); assay: MAGI assay using HeLa CD4/LTR-beta-Gal cells, wild strain; assay type: cell-based; settings: Human immunodeficiency virus 1, 48 hours, read-out: Anti-HIV-1wild activity (EC50)
Description: as §1

[3] = test system: HIV-1 MDR drug-resistant strain; assay: MAGI assay using HeLa CD4/LTR-beta-Gal cells, drug-resistant strain MDR; assay type: cell-based; settings: Human immunodeficiency virus 1, HeLa, 48 h, read-out: Anti-HIV-1MDR activity (EC50, μM)
Description: as §1

[4] = test system: ICR mice; assay: In vivo acute toxicity test in ICR mice; settings: for Survisors/Total: ICR mice, seven days
Description: <Test methods> In vivo Acute Toxicity Test of Compound 4
Groups of ICR mice (6 weeks of age, male), each group consisting of 8 mice, were given a test drug (Compound 4; dissolved or suspended in saline) via oral route or intravenous injection in amounts up to 100 mg/kg. The occurrence of death and body weight of each mouse were monitored for seven days.

[5] = MTT method using non-infected MT-4 cells (cytotoxicity); assay type: cell-based; settings: human
Description: (§2) 1) MTT Method Using MT-4 Cells
as §1

[6] = test system: HIV-1 (IIIb strain); assay: MTT method using MT-4 cells infected with HIV-1 (anti-HIV activity); assay type: cell-based; settings: for EC50: MT-4 cells infected with HIV-1 IIIb, MTT, five days; for Selectivity Index (CC50/EC50): MT-4 cells
Description: as §2, §1

[7] = Stability under acidic conditions (HPLC); assay type: physicochemical; settings: NaCl/hydrochloric acid test solution, 37° C.
Description: <Test Methods> Stability of Compound 4 Under Acidic Conditions
Compound 4 (2.9 mg) or 2′,3′-dideoxyadenosine (ddAdo: 2.4 mg) was dissolved in 10 ml of a 37° C. test solution (which had been prepared by adding 2.0 g of sodium chloride and 7.0 ml of hydrochloric acid into water to make a solution of 1,000 ml), followed by incubation at the same temperature (37° C.).
A 100-μl aliquot of the reaction mixture was removed therefrom and neutralized with aqueous 0.1-N sodium hydroxide solution, followed by analysis of 5 μl by means of HPLC. The HPLC analysis conditions are the same as those employed in Test Example 2.

[8] = target: T1, Calf-intestine-derived adenosine deaminase (Bos taurus, UniProt P56658); assay: Stability against adenosine deaminase (HPLC); assay type: in vitro ADME; settings: 0.01 unit enzyme, 0.5 mM compound, Tris-HCl pH 7.5, 25° C., FIG. 1
T1 construct: Calf-intestine-derived adenosine deaminase; from tissue; host or cells: calf intestine
T1 sequence (P56658 1-363): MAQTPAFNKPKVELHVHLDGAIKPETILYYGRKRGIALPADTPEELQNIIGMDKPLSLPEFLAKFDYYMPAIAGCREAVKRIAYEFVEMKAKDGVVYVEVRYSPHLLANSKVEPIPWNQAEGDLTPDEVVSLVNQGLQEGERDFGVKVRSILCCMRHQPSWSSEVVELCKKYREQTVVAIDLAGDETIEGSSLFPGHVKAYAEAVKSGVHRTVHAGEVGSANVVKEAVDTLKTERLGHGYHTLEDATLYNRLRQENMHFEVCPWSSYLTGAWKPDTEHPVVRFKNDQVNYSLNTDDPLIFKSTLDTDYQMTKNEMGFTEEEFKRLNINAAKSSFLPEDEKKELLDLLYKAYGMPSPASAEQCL
Description: <Test Methods> Stability of Compound 4 Against Adenosine Deaminase Calf-intestine-derived adenosine deaminase (0.01 unit) was added to 0.5 ml of 0.5-mM compound 4 (50 mM Tris-HCl buffered solution (pH 7.5)), and the mixture was incubated at 25° C. A 5-μl aliquot of the reaction mixture was removed every 15 minutes, followed by analysis by means of HPLC (high performance liquid chromatography). The peak area of a test drug at reaction time 0 was taken as 100%, and the curve was monitored over time. The HPLC analysis was performed under the following conditions. Column: YMC-Pack ODS-A (250×6.0 mm) Eluent: 15% MeCN-50 mM TEAA Flow rate: 1 mL/min. Temperature: 30° C. Detection: 260 nm

[9] = test system: non-infected MT-4 cells; assay: MTT method using non-infected MT-4 cells (cytotoxicity); assay type: cell-based; settings: non-infected MT-4 cells, MTT, five days
Description: as §2, §1

[10] = Human immunodeficiency virus 1, MT4, 120 h

`C#C[C@]1(CO)O[C@@H](n2cnc3c(N)nc(F)nc32)C[C@@H]1O` [Compound 4, 2′-deoxy-4′-C-ethynyl-2-fluoroadenosine] gave an EC50 [1] of 0.00311 µM, an EC50 [2] of 0.2 nM and an EC50 [3] of 0.000145 µM. The Survisors/Total ([4]; Intravenous, 1 mg/kg single dose) was 8/8, the Survisors/Total ([4]; Intravenous, 3 mg/kg single dose) was 8/8 and the Survisors/Total ([4]; Intravenous, 10 mg/kg single dose) was 8/8. The Survisors/Total ([4]; Intravenous, 30 mg/kg single dose) was 8/8, the Survisors/Total ([4]; Intravenous, 100 mg/kg single dose) was 8/8 and the Survisors/Total ([4]; Oral, 1 mg/kg single dose) was 8/8. For the same compound, the Survisors/Total ([4]; Oral, 3 mg/kg single dose) was 8/8, the Survisors/Total ([4]; Oral, 10 mg/kg single dose) was 8/8 and the Survisors/Total ([4]; Oral, 30 mg/kg single dose) was 8/8. The Survisors/Total ([4]; Oral, 100 mg/kg single dose) was 8/8, the “Acute toxicity in mice (conclusion)” value ([4]; mouse, in vivo) was “does not exhibit acute toxicity” and the “Survival of mice” value ([4]; mouse, in vivo) was “survived”. The “Weight loss and pathological symptoms such as diarrhea” value ([4]; mouse, in vivo) was “not observed”, the CC50 at 5 days [5] was 7500 nM and the EC50 [6, 10] was 0.068 nM. For the same compound, the “Selectivity Index (CC50/EC50)” value [6] was 110,000, the “Degradation under acidic conditions” value ([7]; FIG. 2) was “degraded very slowly” and the “Deamination by adenosine deaminase” value [8] was “not at all deaminated”.

Compound `N#C[C@]1(CO)O[C@@H](n2cnc3c(N)nc(F)nc32)C[C@@H]1O` [Compound 8, 4′-C-cyano-2′-deoxy-2-fluoroadenosine] has an EC50 [1] of 4.8 µM, an EC50 [2] of 120 nM and an EC50 [3] of 0.95 µM.

For `C#C[C@]1(CO)O[C@@H](n2cnc3c(N)nc(Cl)nc32)C[C@@H]1O` [Compound 9, 2-chloro-2′-deoxy-4′-C-ethynyladenosine], the EC50 [1] was 0.01 µM, the EC50 [2] was 1.9 nM and the EC50 [3] was 0.0084 µM.

Work on `C#C[C@]1(CO[PH](=O)O)O[C@@H](n2cnc3c(N)nc(F)nc32)C[C@H]1O` [Compound 10, 2′-deoxy-4′-C-ethynyl-2-fluoroadenosine 5′-H-phosphonate] yielded an EC50 [1] of 0.062 µM, an EC50 [2] of 3.4 nM and an EC50 [3] of 0.003 µM.

In the case of `C#C[C@@]1(CO)C=C[C@H](n2cnc3c(N)nc(F)nc32)O1` [Compound 13, 2′,3′-didehydro-2′,3′-dideoxy-4′-C-ethynyl-2-fluoroadenosine], the EC50 [1] is reported as 1.8 µM, the EC50 [2] is reported as 800 nM and the EC50 [3] is reported as 0.15 µM.

Work on `C#C[C@]1(CO)O[C@@H](n2cnc3c(N)ncnc32)C[C@@H]1O` [EdAdo, 2′-deoxy-4′-C-ethynyladenosine, reference compound] yielded an EC50 [1] of 0.047 µM, an EC50 [2] of 8 nM and an EC50 [3] of 0.0062 µM. For the same compound, the CC50 at 5 days [5] was 16000 nM, the EC50 [6, 10] was 9.8 nM and the “Selectivity Index (CC50/EC50)” value [6] was 1,630. The “Deamination by adenosine deaminase” value [8] was “deaminated”.

`C#C[C@]1(CO)O[C@@H](n2cnc3c(N)nc(N)nc32)C[C@@H]1O` [EdDAP, 9-(4-C-ethynyl-2-deoxy-ribopentofuranosyl)-2,6-diaminopurine] showed a CC50 [9] of 900 nM and an EC50 [6] of 0.34 nM.

For `Nc1ncnc2c1ncn2[C@H]1CC[C@@H](CO)O1` [ddAdo, 2′,3′-dideoxyadenosine, reference compound], the “Fraction degraded under acidic conditions” value ([7]; in about five minutes, FIG. 3) was “About 98%”.
